One data set deals with S. aureus MN8. It is filed as cell-based, Staphylococcus aureus.
The subject of data set [1] is enzymes produced by S. aureus MN8. Briefly: Breakdown of test compounds by enzymes produced by S. aureus MN8 (GC/MS and liquid chromatography of culture fluid). The data set is classed as in vitro ADME, Staphylococcus aureus. The note with it: Example 7; for GC/MS: concentration of the dominant compound over time / GC/MS: dominant compound found in the sample: culture fluid at 3, 6, 9 and 24 hours. As to the method: The test compounds, in the desired concentrations, were placed in 100 mL of a growth medium in a sterile, 500 mL Corning Fleaker (Fisher Scientific, Pittsbury, Pa.). The growth medium and inoculum were prepared as in Example 1.
The test compounds were added to the growth medium in the amount necessary to obtain the desired final concentration.
Each fleaker was inoculated with the amount of inoculum determined as described above. The fleakers were capped with sterile aluminum foil and incubated at 35° C. in atmospheric air in a Lab-Line orbital water bath (available from VWR Scientific Products, McGaw Park, Ill.) at 180 rpm. Fifteen milliliter samples were removed at 3, 6, 9, and 24 hours. The optical density (595 nm) of the culture fluid was determined and the culture fluid collected at 24 hours was assayed for the number of colony forming units of S. aureus MN8 using standard plate count procedures.
In preparation for analysis of the integrity of the test compounds, the culture fluid was centrifuged at 3000 rpm at 2-10° C. for 15 minutes. The supernatant was filter sterilized through an AUTOVIAL 5 syringeless filter, […] pore size (available from Whatman, Inc., Clifton, N.J.). The resulting fluid was frozen at −70° C. in a FISHERBRAND (12 mm×75 mm) polystyrene culture tube (Fisher Scientific, Pittsburgh, Pa.) until chemical analysis could be performed.
Using an Agilent Technologies 5973N GC/MS, analysis was performed on undiluted solutions at 3, 6, 9, and 24 hours to evaluate the ability of S. aureus MN8 to breakdown the test compounds. Based on the analysis, the control sample, which had no test compounds added, comprised mostly acetic acid at all time intervals.
Additional analysis of the 6 hour and 24 hour samples was conducted by liquid chromatography. In preparation for the chromatography, the samples were diluted 10 fold with water. The dilutions were then analyzed using an ion exclusion column to achieve the separation. Detection of the compounds was accomplished through UV absorbance at 230 nm.

In data set [2] the test system is TSST-1. The data set is classed as cell-based, Staphylococcus aureus.
Data set [3] has as its system TSST-1. It is filed as cell-based, Staphylococcus aureus. This is another data set of the same source.

“And” between values parts separate entries of the source, which are not always exact repeats. Equal values may be shown once.

We go through 6 compounds from patent publication US20060067990A1 (priority 2004, published 2006).

For the compound `OCc1ccccc1` [Benzyl alcohol, benzyl alcohol], in the data set with S. aureus MN8, the CFU/mL was 5.02E+08 CFU/mL and 7.52E+08 CFU/mL. Moreover, in data set [1], the “GC/MS: concentration of the dominant compound over time” value (“GC/MS: concentration … over time” below) is on record as “decreased over time” and the “GC/MS: dominant compound found in the sample” value (from here on “GC/MS: dominant compound found”) is “benzyl alcohol”. For the same compound, in the data set with TSST-1 [2], the “TSST-1 ng/mL” value is 2.46 ng/mL and 2.22 ng/mL and 1.33 ng/mL. The “toxin production, pairwise statistical comparison” value in the data set with TSST-1 [3] is recorded as “significantly decreased toxin production”.

With `CC(C)C(NC(=O)c1ccccc1)C(=O)O` (racemic) [N-benzoyl-DL-valine, N-Benzoyl-DL-Valine], the CFU/mL with S. aureus MN8 was 1.61E+08 CFU/mL and 2.07E+08 CFU/mL.

For myreth-3-myristate [Cetiol 1414E], in the data set on S. aureus MN8, the CFU/mL is 1.75E+08 CFU/mL and 2.61E+08 CFU/mL and 2.48E+08 CFU/mL and 2.05E+08 CFU/mL; the “CFU/mL ×10^7” value is 22.5 CFU/mL ×10^7 and 25.6 CFU/mL ×10^7 and 17.4 CFU/mL ×10^7; the “inhibition of the growth of S. aureus, pairwise statistical comparison” value is given as “significantly greater inhibition of the growth of S. aureus”. In the data set on TSST-1 [3], the “% Reduction” value was 74% and 69% and 87%; the “ELISA: TSST-1 (% inhibition)” value was “(79%)”; the “ELISA: TSST-1 Nanograms/mL” value is reported as 61 Nanograms/mL.

For `O=C(O)c1ccccc1` [benzoic acid], in data set [1], the “GC/MS: concentration … over time” value is recorded as “decreased over time” and the “GC/MS: dominant compound found” value is on record as “benzoic acid”.

`CC(C)CC(NC(=O)c1ccccc1)C(=O)O` (racemic) [N-benzoyl-DL-leucine, N-Benzoyl-DL-Leucine]: the CFU/mL with S. aureus MN8 was 2.23E+08 CFU/mL and 2.69E+08 CFU/mL. The “liquid chromatography: evidence of breakdown to the active species” value in data set [1] (6 hour and 24 hour samples, UV 230 nm) is listed as “breakdown to benzoic acid”. In data set [1], the “GC/MS: concentration … over time” value is listed as “decreasing concentration over time” and the “GC/MS: dominant compound found” value is listed as “benzoic acid as the dominant compound”. Further, the “ELISA: TSST-1 ng per mL” value with TSST-1 [3] is 7.9 ng per mL and 14.6 ng per mL.

Turning to `CCCCCCCCCCCC(=O)OCc1ccccc1` [Benzyl laurate, Benzyl- laurate], the CFU/mL in the data set on S. aureus MN8 is 2.05E+08 CFU/mL and 3.05E+08 CFU/mL and 4.05E+08 CFU/mL and 3.80E+08 CFU/mL.
